#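 These data come from cells grown in 96-well plates and exposed to compound for 48 hours at five concentrations. GI50 = concentration required for 50% inhibition of growth. Definition used: TGI = concentration required for complete inhibition of growth.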
# What was measured:
# Test in all cases: NCI-60 cell line screen, 48 h
# SR leukemia = tested on: SR leukemia
# PC-3 prostate = tested on: PC-3 prostate
# UACC-257 melanoma = tested on: UACC-257 melanoma
# HL-60(TB) leukemia = tested on: HL-60(TB) leukemia
# BT-549 breast = tested on: BT-549 breast
# U251 CNS = tested on: U251 CNS
# MDA-MB-231 breast = tested on: MDA-MB-231 breast
# SK-MEL-28 melanoma = tested on: SK-MEL-28 melanoma
# EKVX NSCLC = tested on: EKVX NSCLC
# HCC-2998 colon = tested on: HCC-2998 colon
# SK-MEL-2 melanoma = tested on: SK-MEL-2 melanoma
# IGROV1 ovarian = tested on: IGROV1 ovarian
# LOX IMVI melanoma = tested on: LOX IMVI melanoma
# SNB-19 CNS = tested on: SNB-19 CNS
# OVCAR-4 ovarian = tested on: OVCAR-4 ovarian
# RXF 393 renal = tested on: RXF 393 renal
# T-47D breast = tested on: T-47D breast
# SW-620 colon = tested on: SW-620 colon
# SF-539 CNS = tested on: SF-539 CNS
# ACHN renal = tested on: ACHN renal
# NCI-H23 lung = tested on: NCI-H23 lung
# SK-OV-3 ovarian = tested on: SK-OV-3 ovarian
# MOLT-4 leukemia = tested on: MOLT-4 leukemia
# NCI/ADR-RES ovarian = tested on: NCI/ADR-RES ovarian
# TK-10 renal = tested on: TK-10 renal
# OVCAR-3 ovarian = tested on: OVCAR-3 ovarian
# SF-268 CNS = tested on: SF-268 CNS
# HT29 colon = tested on: HT29 colon
# HCT-116 colon = tested on: HCT-116 colon
# A498 renal = tested on: A498 renal
# SNB-75 CNS = tested on: SNB-75 CNS
# A549 NSCLC = tested on: A549 NSCLC
# UACC-62 melanoma = tested on: UACC-62 melanoma
# CCRF-CEM leukemia = tested on: CCRF-CEM leukemia
# UO-31 renal = tested on: UO-31 renal
# DU-145 prostate = tested on: DU-145 prostate
# SF-295 CNS = tested on: SF-295 CNS
# NCI-H522 lung = tested on: NCI-H522 lung
# MALME-3M melanoma = tested on: MALME-3M melanoma
# HOP-92 NSCLC = tested on: HOP-92 NSCLC
# 786-0 renal = tested on: 786-0 renal
# NCI-H460 lung = tested on: NCI-H460 lung
# SN12C renal = tested on: SN12C renal
# HCT-15 colon = tested on: HCT-15 colon
# HS 578T breast = tested on: HS 578T breast
# SK-MEL-5 melanoma = tested on: SK-MEL-5 melanoma
# MCF7 breast = tested on: MCF7 breast
# KM12 colon = tested on: KM12 colon
# COLO 205 colon = tested on: COLO 205 colon
# RPMI-8226 leukemia = tested on: RPMI-8226 leukemia
# MDA-MB-435 = tested on: MDA-MB-435
# OVCAR-5 ovarian = tested on: OVCAR-5 ovarian
# NCI-H226 lung = tested on: NCI-H226 lung
# HOP-62 NSCLC = tested on: HOP-62 NSCLC
# K-562 leukemia = tested on: K-562 leukemia
# M14 melanoma = tested on: M14 melanoma
# OVCAR-8 ovarian = tested on: OVCAR-8 ovarian
# CAKI-1 renal = tested on: CAKI-1 renal
# MDA-N = tested on: MDA-N
structure (smiles),measurement,setting,value
Cc1ccc(NC(=O)c2cccc(N(C)C)c2)cc1NC(=O)c1ccc(O)cc1,GI50,SR leukemia,31.5 µM
same,TGI,SR leukemia,> 100 µM
same,GI50,PC-3 prostate,> 61.7 µM
same,TGI,PC-3 prostate,> 100 µM
same,GI50,UACC-257 melanoma,> 68.2 µM
same,TGI,UACC-257 melanoma,> 100 µM
same,GI50,HL-60(TB) leukemia,46.3 µM
same,TGI,HL-60(TB) leukemia,> 100 µM
same,GI50,BT-549 breast,> 64 µM
same,TGI,BT-549 breast,> 100 µM
same,GI50,U251 CNS,> 68.8 µM
same,TGI,U251 CNS,> 100 µM
same,GI50,MDA-MB-231 breast,33 µM
same,TGI,MDA-MB-231 breast,> 93.6 µM
same,GI50,SK-MEL-28 melanoma,> 50.1 µM
same,TGI,SK-MEL-28 melanoma,> 100 µM
same,GI50,EKVX NSCLC,> 79.7 µM
same,TGI,EKVX NSCLC,> 100 µM
same,GI50,HCC-2998 colon,74.8 µM
same,TGI,HCC-2998 colon,> 100 µM
same,GI50,SK-MEL-2 melanoma,14.1 µM
same,TGI,SK-MEL-2 melanoma,39.2 µM
same,GI50,IGROV1 ovarian,> 85.8 µM
same,TGI,IGROV1 ovarian,> 100 µM
same,GI50,LOX IMVI melanoma,> 62 µM
same,TGI,LOX IMVI melanoma,> 100 µM
same,GI50,SNB-19 CNS,51.1 µM
same,TGI,SNB-19 CNS,> 100 µM
same,GI50,OVCAR-4 ovarian,38.6 µM
same,TGI,OVCAR-4 ovarian,> 100 µM
same,GI50,RXF 393 renal,38 µM
same,TGI,RXF 393 renal,> 66.1 µM
same,GI50,T-47D breast,> 48.7 µM
same,TGI,T-47D breast,> 79.2 µM
same,GI50,SW-620 colon,> 75.5 µM
same,TGI,SW-620 colon,> 100 µM
same,GI50,SF-539 CNS,41 µM
same,TGI,SF-539 CNS,> 100 µM
same,GI50,ACHN renal,> 63.6 µM
same,TGI,ACHN renal,> 100 µM
same,GI50,NCI-H23 lung,> 61.9 µM
same,TGI,NCI-H23 lung,> 100 µM
same,GI50,SK-OV-3 ovarian,65.7 µM
same,TGI,SK-OV-3 ovarian,> 100 µM
same,GI50,MOLT-4 leukemia,> 72.4 µM
same,TGI,MOLT-4 leukemia,> 100 µM
same,GI50,NCI/ADR-RES ovarian,> 72 µM
same,TGI,NCI/ADR-RES ovarian,> 100 µM
same,GI50,TK-10 renal,> 70 µM
same,TGI,TK-10 renal,> 100 µM
same,GI50,OVCAR-3 ovarian,67.3 µM
same,TGI,OVCAR-3 ovarian,> 100 µM
same,GI50,SF-268 CNS,44.6 µM
same,TGI,SF-268 CNS,> 100 µM
same,GI50,HT29 colon,> 57.3 µM
same,TGI,HT29 colon,> 100 µM
same,GI50,HCT-116 colon,> 59.4 µM
same,TGI,HCT-116 colon,> 100 µM
same,GI50,A498 renal,> 83.6 µM
same,TGI,A498 renal,> 100 µM
same,GI50,SNB-75 CNS,26.3 µM
same,TGI,SNB-75 CNS,> 81.8 µM
same,GI50,A549 NSCLC,61.4 µM
same,TGI,A549 NSCLC,> 100 µM
same,GI50,UACC-62 melanoma,34 µM
same,TGI,UACC-62 melanoma,99.4 µM
same,GI50,CCRF-CEM leukemia,16.6 µM
same,TGI,CCRF-CEM leukemia,> 100 µM
same,GI50,UO-31 renal,> 73.4 µM
same,TGI,UO-31 renal,> 100 µM
same,GI50,DU-145 prostate,62.6 µM
same,TGI,DU-145 prostate,> 100 µM
same,GI50,SF-295 CNS,37.6 µM
same,TGI,SF-295 CNS,> 100 µM
same,GI50,NCI-H522 lung,37.1 µM
same,TGI,NCI-H522 lung,> 88.2 µM
same,GI50,MALME-3M melanoma,> 75.9 µM
same,TGI,MALME-3M melanoma,> 100 µM
same,GI50,HOP-92 NSCLC,> 52.7 µM
same,TGI,HOP-92 NSCLC,> 100 µM
same,GI50,786-0 renal,> 71.5 µM
same,TGI,786-0 renal,> 100 µM
same,GI50,NCI-H460 lung,45.2 µM
same,TGI,NCI-H460 lung,> 100 µM
same,GI50,SN12C renal,55 µM
same,TGI,SN12C renal,> 100 µM
same,GI50,HCT-15 colon,53.3 µM
same,TGI,HCT-15 colon,> 100 µM
same,GI50,HS 578T breast,63.6 µM
same,TGI,HS 578T breast,> 100 µM
same,GI50,SK-MEL-5 melanoma,28.5 µM
same,TGI,SK-MEL-5 melanoma,> 65.8 µM
same,GI50,MCF7 breast,52 µM
same,TGI,MCF7 breast,> 100 µM
same,GI50,KM12 colon,54.9 µM
same,TGI,KM12 colon,> 100 µM
same,GI50,COLO 205 colon,> 64.7 µM
same,TGI,COLO 205 colon,> 100 µM
same,GI50,RPMI-8226 leukemia,> 63.1 µM
same,TGI,RPMI-8226 leukemia,> 100 µM
same,GI50,MDA-MB-435,52.3 µM
same,TGI,MDA-MB-435,> 100 µM
same,GI50,OVCAR-5 ovarian,> 82.4 µM
same,TGI,OVCAR-5 ovarian,> 100 µM
same,GI50,NCI-H226 lung,> 71.4 µM
same,TGI,NCI-H226 lung,> 100 µM
same,GI50,HOP-62 NSCLC,54.2 µM
same,TGI,HOP-62 NSCLC,> 100 µM
same,GI50,K-562 leukemia,42.7 µM
same,TGI,K-562 leukemia,> 100 µM
same,GI50,M14 melanoma,> 64.6 µM
same,TGI,M14 melanoma,> 100 µM
same,GI50,OVCAR-8 ovarian,53.2 µM
same,TGI,OVCAR-8 ovarian,> 100 µM
same,GI50,CAKI-1 renal,52.8 µM
same,TGI,CAKI-1 renal,> 100 µM
COc1ccc(Nc2nc3c([nH]2)c(=O)n(C)c(=O)n3C)cc1,TGI,SR leukemia,> 10 µM
same,TGI,PC-3 prostate,> 10 µM
same,TGI,UACC-257 melanoma,> 10 µM
same,TGI,HL-60(TB) leukemia,> 10 µM
same,TGI,MDA-MB-231 breast,> 10 µM
same,TGI,SK-MEL-28 melanoma,> 10 µM
same,TGI,EKVX NSCLC,> 10 µM
same,TGI,HCC-2998 colon,> 10 µM
same,TGI,IGROV1 ovarian,> 10 µM
same,TGI,LOX IMVI melanoma,> 10 µM
same,TGI,OVCAR-4 ovarian,> 10 µM
same,TGI,RXF 393 renal,> 10 µM
same,TGI,T-47D breast,> 10 µM
same,TGI,MDA-N,> 10 µM
same,TGI,SW-620 colon,> 10 µM
same,TGI,NCI-H23 lung,> 10 µM
same,TGI,SK-OV-3 ovarian,> 10 µM
same,TGI,MOLT-4 leukemia,> 10 µM
same,TGI,TK-10 renal,> 10 µM
same,TGI,SF-268 CNS,> 10 µM
same,TGI,HT29 colon,> 10 µM
same,TGI,SNB-75 CNS,> 10 µM
same,TGI,A549 NSCLC,> 10 µM
same,TGI,UACC-62 melanoma,> 10 µM
same,TGI,CCRF-CEM leukemia,> 10 µM
same,TGI,DU-145 prostate,> 10 µM
same,TGI,SF-295 CNS,> 10 µM
same,TGI,MALME-3M melanoma,> 10 µM
same,TGI,HOP-92 NSCLC,> 10 µM
same,TGI,786-0 renal,> 10 µM
same,TGI,SN12C renal,> 10 µM
same,TGI,HCT-15 colon,> 10 µM
same,TGI,SK-MEL-5 melanoma,> 10 µM
same,TGI,MCF7 breast,> 10 µM
same,TGI,KM12 colon,> 10 µM
same,TGI,COLO 205 colon,> 10 µM
same,TGI,RPMI-8226 leukemia,> 10 µM
same,TGI,MDA-MB-435,> 10 µM
same,TGI,HOP-62 NSCLC,> 10 µM
same,TGI,K-562 leukemia,> 10 µM
same,TGI,M14 melanoma,> 10 µM
same,TGI,OVCAR-8 ovarian,> 10 µM
same,TGI,CAKI-1 renal,> 10 µM
